Laboratory results as given in PMC5513037, “Examining the influence of specificity ligands and ATP-competitive ligands on the overall effectiveness of bivalent kinase inhibitors” (Proteome Science, 2017).

Key:
Test in all cases: KAM-matrix competition in K562 lysate;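 for 0.001 uM KAM: median log10 fold change of treatment over DMSO control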;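 for 0.01 uM KAM: median log10 fold change of treatment over DMSO control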;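 for 0.1 uM KAM: median log10 fold change of treatment over DMSO control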;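 for 1 uM KAM: median log10 fold change of treatment over DMSO control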;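 for 10 uM KAM: median log10 fold change of treatment over DMSO control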
Type in all cases: binding
MAP3K2 = molecular target: T1, MAP3K2 (Homo sapiens, UniProt Q9Y2U5)
T1 construct: endogenous in cells; host or cells: K562
T1 sequence (Q9Y2U5 1-619): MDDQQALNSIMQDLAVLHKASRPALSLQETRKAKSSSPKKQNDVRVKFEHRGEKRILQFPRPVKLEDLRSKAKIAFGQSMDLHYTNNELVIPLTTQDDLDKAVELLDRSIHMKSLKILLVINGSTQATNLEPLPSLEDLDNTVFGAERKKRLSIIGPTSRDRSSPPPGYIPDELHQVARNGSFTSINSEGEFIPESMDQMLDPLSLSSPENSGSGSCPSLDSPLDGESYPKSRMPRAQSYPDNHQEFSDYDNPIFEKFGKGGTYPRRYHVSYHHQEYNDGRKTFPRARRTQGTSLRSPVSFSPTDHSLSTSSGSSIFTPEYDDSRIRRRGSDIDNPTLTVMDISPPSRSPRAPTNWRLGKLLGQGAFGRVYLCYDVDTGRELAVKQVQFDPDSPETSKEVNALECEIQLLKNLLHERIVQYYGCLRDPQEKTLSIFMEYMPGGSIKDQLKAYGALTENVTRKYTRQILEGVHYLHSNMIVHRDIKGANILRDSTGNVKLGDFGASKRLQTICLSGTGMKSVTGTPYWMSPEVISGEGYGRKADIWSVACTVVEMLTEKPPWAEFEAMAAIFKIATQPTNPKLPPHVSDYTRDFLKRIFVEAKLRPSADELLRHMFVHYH
Procedure: (§1) Supplement 12953_2017_125_MOESM1_ESM.zip/MS_Supp Info.xlsx, sheet "KAM" | column: 10 uM KAM; 1 uM KAM; 0.1 uM KAM; 0.01 uM KAM; 0.001 uM KAM; RB50

JAK2 = molecular target: T2, JAK2 (Homo sapiens, UniProt O60674)
T2 construct: endogenous in cells; host or cells: K562
Procedure: as §1

EPHB4 = molecular target: T3, EPHB4 (Homo sapiens, UniProt P54760)
T3 construct: endogenous in cells; host or cells: K562
T3 sequence (P54760 16-987): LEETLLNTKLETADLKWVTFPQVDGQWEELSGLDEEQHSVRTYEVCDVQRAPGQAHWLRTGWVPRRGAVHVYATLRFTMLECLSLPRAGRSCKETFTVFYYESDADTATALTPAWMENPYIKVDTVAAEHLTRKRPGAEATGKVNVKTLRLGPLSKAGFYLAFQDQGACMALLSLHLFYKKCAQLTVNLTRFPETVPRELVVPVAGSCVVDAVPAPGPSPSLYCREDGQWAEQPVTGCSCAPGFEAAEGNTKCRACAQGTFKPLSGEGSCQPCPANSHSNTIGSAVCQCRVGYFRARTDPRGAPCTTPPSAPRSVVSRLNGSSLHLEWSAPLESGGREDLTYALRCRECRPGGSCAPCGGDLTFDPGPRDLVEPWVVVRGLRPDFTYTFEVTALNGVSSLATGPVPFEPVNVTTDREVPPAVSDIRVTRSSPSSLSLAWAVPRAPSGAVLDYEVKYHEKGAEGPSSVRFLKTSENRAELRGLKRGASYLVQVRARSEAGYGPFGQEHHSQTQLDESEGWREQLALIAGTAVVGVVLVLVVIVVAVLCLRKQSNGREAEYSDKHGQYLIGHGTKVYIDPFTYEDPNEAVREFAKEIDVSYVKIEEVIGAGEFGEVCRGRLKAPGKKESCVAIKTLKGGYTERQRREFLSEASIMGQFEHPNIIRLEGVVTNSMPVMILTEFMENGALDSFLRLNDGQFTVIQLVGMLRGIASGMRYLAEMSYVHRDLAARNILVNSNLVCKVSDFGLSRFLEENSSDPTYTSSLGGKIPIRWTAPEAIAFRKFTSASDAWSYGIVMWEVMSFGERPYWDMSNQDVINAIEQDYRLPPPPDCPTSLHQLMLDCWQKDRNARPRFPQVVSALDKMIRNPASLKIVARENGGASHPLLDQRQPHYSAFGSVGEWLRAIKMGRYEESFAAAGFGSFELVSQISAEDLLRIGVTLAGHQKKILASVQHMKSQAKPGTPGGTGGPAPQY
Procedure: as §1

PHKG2 = molecular target: T4, PHKG2 (Homo sapiens, UniProt P15735)
T4 construct: endogenous in cells; host or cells: K562 cell lysate
T4 sequence (P15735 1-406): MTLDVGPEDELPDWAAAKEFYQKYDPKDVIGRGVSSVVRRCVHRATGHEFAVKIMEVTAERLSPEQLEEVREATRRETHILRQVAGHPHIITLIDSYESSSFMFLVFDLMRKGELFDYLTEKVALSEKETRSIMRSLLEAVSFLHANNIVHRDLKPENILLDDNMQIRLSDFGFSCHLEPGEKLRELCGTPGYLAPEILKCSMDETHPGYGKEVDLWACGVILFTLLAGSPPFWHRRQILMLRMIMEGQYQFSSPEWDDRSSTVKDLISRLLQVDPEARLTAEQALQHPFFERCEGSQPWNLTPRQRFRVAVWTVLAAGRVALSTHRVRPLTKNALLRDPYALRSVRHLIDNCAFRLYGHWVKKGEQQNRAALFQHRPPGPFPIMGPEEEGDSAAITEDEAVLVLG
Procedure: as §1

SIK3 = molecular target: T5, SIK3 (Homo sapiens, UniProt Q9Y2K2);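 for 0.001 uM KAM: median log10 fold change of treatment over DMSO control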;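 for 0.01 uM KAM: median log10 fold change of treatment over DMSO control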;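 for 0.1 uM KAM: median log10 fold change of treatment over DMSO control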;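 for 1 uM KAM: median log10 fold change of treatment over DMSO control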;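 for 10 uM KAM: median log10 fold change of treatment over DMSO control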
T5 construct: endogenous in cells; host or cells: K562
Procedure: as §1

SPEG = molecular target: T6, SPEG (Homo sapiens, UniProt Q15772);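 for 0.001 uM KAM: median log10 fold change of treatment over DMSO control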;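 for 0.01 uM KAM: median log10 fold change of treatment over DMSO control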;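 for 0.1 uM KAM: median log10 fold change of treatment over DMSO control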;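 for 1 uM KAM: median log10 fold change of treatment over DMSO control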;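 for 10 uM KAM: median log10 fold change of treatment over DMSO control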
T6 construct: endogenous in cells; host or cells: K562
Procedure: as §1

[1] = read-out: RB50 (the source's name)
[2] = KAM 0.001-10 uM, read-out: RB50 (the source's name)

T6 sequence (Q15772 whole entry): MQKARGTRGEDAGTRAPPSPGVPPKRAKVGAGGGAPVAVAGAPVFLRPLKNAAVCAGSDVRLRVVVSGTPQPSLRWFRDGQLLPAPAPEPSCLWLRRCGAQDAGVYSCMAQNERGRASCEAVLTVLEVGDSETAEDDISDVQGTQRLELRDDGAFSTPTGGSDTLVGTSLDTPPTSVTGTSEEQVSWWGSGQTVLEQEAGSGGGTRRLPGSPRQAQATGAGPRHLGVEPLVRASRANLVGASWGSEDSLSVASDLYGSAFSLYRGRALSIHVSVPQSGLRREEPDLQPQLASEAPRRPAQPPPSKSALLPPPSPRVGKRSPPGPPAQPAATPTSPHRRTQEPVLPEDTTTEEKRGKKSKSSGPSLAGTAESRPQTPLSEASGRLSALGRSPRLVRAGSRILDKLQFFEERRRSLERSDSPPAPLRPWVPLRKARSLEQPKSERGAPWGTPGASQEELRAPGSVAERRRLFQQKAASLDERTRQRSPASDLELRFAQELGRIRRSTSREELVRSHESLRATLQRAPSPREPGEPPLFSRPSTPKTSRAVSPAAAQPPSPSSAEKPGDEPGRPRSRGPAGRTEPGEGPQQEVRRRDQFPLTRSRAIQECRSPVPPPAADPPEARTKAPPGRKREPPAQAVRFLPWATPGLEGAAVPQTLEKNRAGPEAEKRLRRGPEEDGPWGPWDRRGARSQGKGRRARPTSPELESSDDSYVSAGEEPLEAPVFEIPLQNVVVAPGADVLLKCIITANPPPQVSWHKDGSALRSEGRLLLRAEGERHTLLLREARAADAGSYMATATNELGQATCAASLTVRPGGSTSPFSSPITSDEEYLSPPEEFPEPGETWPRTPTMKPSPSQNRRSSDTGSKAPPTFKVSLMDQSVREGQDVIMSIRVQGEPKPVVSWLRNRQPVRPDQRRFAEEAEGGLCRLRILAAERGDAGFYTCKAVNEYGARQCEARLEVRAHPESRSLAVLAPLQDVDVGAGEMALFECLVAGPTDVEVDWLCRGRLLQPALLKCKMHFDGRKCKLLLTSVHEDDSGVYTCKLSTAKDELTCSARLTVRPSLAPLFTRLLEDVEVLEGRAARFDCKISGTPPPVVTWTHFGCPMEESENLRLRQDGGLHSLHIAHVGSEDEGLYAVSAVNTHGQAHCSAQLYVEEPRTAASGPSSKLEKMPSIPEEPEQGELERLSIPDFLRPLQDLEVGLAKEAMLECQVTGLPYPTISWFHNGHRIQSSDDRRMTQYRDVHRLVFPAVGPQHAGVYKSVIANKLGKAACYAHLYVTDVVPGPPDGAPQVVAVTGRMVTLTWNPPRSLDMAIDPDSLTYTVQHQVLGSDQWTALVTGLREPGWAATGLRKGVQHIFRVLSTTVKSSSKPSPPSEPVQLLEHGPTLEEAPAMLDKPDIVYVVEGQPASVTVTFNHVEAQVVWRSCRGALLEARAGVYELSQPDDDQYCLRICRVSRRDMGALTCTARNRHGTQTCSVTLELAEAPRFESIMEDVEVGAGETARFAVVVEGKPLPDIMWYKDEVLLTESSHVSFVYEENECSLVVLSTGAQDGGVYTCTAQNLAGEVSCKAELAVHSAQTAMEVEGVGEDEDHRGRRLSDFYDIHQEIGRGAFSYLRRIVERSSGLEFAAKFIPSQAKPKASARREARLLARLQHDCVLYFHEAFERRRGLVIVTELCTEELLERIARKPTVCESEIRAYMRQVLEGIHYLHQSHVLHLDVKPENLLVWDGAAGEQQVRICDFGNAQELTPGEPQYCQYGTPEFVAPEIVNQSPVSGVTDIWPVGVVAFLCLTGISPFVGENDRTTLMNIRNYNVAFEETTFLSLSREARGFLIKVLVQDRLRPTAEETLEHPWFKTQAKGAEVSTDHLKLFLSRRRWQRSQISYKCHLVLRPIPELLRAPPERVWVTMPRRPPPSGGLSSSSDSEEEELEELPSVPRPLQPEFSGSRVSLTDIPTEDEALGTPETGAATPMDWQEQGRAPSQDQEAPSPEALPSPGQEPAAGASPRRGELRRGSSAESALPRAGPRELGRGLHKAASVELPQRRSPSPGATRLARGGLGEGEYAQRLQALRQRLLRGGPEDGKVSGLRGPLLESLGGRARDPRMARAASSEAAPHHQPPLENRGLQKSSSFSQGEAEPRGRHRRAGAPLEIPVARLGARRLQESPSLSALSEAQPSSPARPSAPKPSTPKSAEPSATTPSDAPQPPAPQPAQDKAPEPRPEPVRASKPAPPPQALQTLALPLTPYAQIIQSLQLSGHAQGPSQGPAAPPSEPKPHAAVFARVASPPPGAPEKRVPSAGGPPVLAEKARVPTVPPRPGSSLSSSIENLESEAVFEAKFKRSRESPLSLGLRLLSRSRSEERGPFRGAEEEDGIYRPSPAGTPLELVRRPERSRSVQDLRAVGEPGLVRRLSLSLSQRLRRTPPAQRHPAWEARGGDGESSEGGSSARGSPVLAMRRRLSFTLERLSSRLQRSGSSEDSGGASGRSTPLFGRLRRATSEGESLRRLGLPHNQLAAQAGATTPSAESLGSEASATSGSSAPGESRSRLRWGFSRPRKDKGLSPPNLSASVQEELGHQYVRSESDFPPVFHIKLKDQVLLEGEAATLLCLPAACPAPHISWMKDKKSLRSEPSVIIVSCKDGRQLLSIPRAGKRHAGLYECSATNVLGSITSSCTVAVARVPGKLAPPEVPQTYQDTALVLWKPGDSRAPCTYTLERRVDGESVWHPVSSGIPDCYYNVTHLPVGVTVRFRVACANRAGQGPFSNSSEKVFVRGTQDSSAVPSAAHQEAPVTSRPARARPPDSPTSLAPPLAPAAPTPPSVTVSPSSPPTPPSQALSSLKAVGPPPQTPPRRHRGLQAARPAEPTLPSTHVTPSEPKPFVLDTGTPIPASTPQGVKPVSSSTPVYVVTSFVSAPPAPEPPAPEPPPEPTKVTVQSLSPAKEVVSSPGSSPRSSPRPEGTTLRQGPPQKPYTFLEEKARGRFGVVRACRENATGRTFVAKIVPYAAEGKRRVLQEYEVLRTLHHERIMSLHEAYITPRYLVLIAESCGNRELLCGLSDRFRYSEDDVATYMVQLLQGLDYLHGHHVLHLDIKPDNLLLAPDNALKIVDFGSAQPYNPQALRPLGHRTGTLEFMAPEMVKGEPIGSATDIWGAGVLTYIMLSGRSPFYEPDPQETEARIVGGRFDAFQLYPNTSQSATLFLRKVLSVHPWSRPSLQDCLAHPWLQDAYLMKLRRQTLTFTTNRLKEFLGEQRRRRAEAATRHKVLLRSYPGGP
T2 sequence (O60674 whole entry): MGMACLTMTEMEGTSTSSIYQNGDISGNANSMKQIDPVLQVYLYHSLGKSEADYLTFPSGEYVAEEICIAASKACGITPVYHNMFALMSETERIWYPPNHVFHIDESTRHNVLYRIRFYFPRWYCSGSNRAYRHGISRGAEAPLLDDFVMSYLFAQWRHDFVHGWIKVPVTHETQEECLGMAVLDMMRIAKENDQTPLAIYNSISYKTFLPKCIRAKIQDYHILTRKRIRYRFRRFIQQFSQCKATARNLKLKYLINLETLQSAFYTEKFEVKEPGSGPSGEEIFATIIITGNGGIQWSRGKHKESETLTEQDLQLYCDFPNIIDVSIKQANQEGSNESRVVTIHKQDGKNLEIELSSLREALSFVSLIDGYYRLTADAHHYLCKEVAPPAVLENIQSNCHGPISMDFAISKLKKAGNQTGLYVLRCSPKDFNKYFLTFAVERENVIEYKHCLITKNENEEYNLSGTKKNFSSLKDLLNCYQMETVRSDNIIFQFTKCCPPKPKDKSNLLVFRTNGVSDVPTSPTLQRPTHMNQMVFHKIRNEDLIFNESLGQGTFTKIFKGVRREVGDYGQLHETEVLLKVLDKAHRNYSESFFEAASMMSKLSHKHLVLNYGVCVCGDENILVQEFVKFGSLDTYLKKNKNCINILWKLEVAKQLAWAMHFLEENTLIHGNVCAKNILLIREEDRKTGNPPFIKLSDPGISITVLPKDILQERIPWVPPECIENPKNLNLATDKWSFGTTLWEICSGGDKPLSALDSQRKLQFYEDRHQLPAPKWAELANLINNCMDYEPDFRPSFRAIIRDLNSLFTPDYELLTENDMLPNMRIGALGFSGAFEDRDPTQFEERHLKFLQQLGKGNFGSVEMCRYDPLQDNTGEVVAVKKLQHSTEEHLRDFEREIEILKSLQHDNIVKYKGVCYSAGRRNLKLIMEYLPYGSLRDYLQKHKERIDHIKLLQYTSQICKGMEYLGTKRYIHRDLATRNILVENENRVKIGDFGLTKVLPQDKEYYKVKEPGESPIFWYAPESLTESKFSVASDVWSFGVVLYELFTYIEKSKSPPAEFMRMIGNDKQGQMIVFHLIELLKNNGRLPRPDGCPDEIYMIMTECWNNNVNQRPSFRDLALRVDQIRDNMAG

## N#CCc1ccc(Nc2nc(NCCCN)cc(Nc3cc(C4CC4)[nH]n3)n2)cc1 [KAM]
MAP3K2; 0.001 uM KAM
  median Log10 fold change: -0.0298
MAP3K2; 0.01 uM KAM
  median Log10 fold change: 0.004839
MAP3K2; 0.1 uM KAM
  median Log10 fold change: -0.103
MAP3K2; 1 uM KAM
  median Log10 fold change: -0.3096
MAP3K2; 10 uM KAM
  median Log10 fold change: -0.4027
MAP3K2; [1]
  IC50: 1330 nM
JAK2; 0.001 uM KAM
  median Log10 fold change: -0.002638
JAK2; 0.01 uM KAM
  median Log10 fold change: -0.00181
JAK2; 0.1 uM KAM
  median Log10 fold change: -0.159
JAK2; 1 uM KAM
  median Log10 fold change: -0.3349
JAK2; 10 uM KAM
  median Log10 fold change: -0.4311
JAK2; [1]
  IC50: 909 nM
EPHB4; 0.001 uM KAM
  median Log10 fold change: -0.01696
EPHB4; 0.01 uM KAM
  median Log10 fold change: -0.007903
EPHB4; 0.1 uM KAM
  median Log10 fold change: -0.1428
EPHB4; 1 uM KAM
  median Log10 fold change: -0.3696
EPHB4; 10 uM KAM
  median Log10 fold change: -0.517
EPHB4; [1]
  IC50: 717 nM
PHKG2; 0.001 uM KAM
  median Log10 fold change: 0.003099
PHKG2; 0.01 uM KAM
  median Log10 fold change: -0.03027
PHKG2; 0.1 uM KAM
  median Log10 fold change: -0.2223
PHKG2; 1 uM KAM
  median Log10 fold change: -0.4221
PHKG2; 10 uM KAM
  median Log10 fold change: -0.5566
PHKG2; [1]
  IC50: 338 nM
SIK3; [2]
  IC50: > 10 µM
SIK3; relative to 0 uM KAM = 0
  0.001 uM KAM: -0.07223
  0.01 uM KAM: -0.0771
  0.1 uM KAM: -0.08847
  1 uM KAM: -0.01623
  10 uM KAM: -0.07209
SPEG; [2]
  IC50: > 10 µM
SPEG; relative to 0 uM KAM = 0
  0.001 uM KAM: -0.04699
  0.01 uM KAM: 0.03576
  0.1 uM KAM: -0.007872
  1 uM KAM: 0.04064
  10 uM KAM: 0.01523
